In patent publication US9333191B2, “Mast cell stabilizers to prevent or treat laminitis” (WILLOWCROFT PHARM INC., priority 2004, dated 2016):
Entries after “also recorded” stand apart in the source; their conditions may differ. Structures can show the parent of a compound that is named as a salt.

Tests used:
[1] = tested on: Ovine Laminitis; assay: Histological evaluation of treatment in an acute model of ovine laminitis (lactic acid infusion + Compound 48/80); format: in vivo; details: Group 2: Nedocromil sodium (42 mg/kg) + lactic acid infusion + Compound 48/80 (1 mg/kg); anesthetized sheep; hematoxylin and eosin sections
Description: Laminitis can be induced in vivo through systemic acidosis. This study initiated laminitis in anesthetized sheep by inducing acidosis for the purpose of measuring the level of inflammation in the hoof vascular bed associated with initiation of laminitis. Adult Suffolk sheep (at least 6 months old) weighing at least 60 kg were obtained for the study. Animals were housed and research procedures were performed according to the standards provided in the Guide for the Care and Use of Laboratory Animals, 7th Edition, Revised 1996, National Academy Press, Washington, DC. During acclimation, sheep were pasture-housed with access to feed, water, and shelter. Sheep were fed a standard diet of hay and alfalfa in addition to pasture feed. One day prior to surgery, each animal was transferred to an indoor facility with single animal runs. […] The runs had automatic watering devices and animals were fed in steel feeders. Animals were acclimated for a minimum of one day prior to surgery. Sheep were fasted approximately 16 hours overnight on the day prior to surgery. Two sheep served as terminal controls after prolonged infusion of lactic acid and the mast cell activator 48/80. Systemic blood pH was lowered to approximately […], the animals euthanized, and the hooves observed histopathologically. […]

[2] = tested on: Bovine Laminitis; format: in vivo, Holstein calves
Description: To test the effectiveness of nedocromil sodium to prevent laminitis in cattle, 4 Holstein calves weighing between 325 and 350 pounds were selected for the study and treated as shown in Table 11.
Starting with day one through day four, and continuing day six through day seven, calves 1 and 2 received Nedocromil sodium pretreatment (1.5 grams infused through the jugular vein) while calves 3 and 4 received no treatment. On each of days one through four and days six through seven, blood samples were obtained from all four calves. No treatments were administered on days eight through ten. On day eleven, calves 1 and 2 were administered 2 grams of Nedocromil sodium. Shortly thereafter, 3.5 pounds of corn starch and 1.5 pounds of sugar mixed in water along with 6×10^11 lactic acid producing and histamine producing organisms were administered to all four calves by releasing the mixture into the rumen of each animal. The process of administering the carbohydrate plus lactic acid producing and histamine producing organisms is known to induce acidosis in cattle.
The calves' behavior was observed, blood samples taken, and temperatures measured over the next 72 hours.

[3] = tested on: Rattus norvegicus basophilic leukemia cells; assay: Lactic acid-stimulated histamine release from basophilic leukemia cells (GC-MS); format: cell-based
Description: The immortal cell culture line of Rattus norvegicus basophilic leukemia cells was subcultured and incubated at 37° C. overnight. […] After incubation, 50 μL of the supernatant was removed from the cells and stored at −80° C. or derivatized for GC-MS analysis.
The supernatant was mixed with 135 μl of an acetone reaction solution (ethanol, triethylamine, and 9-methylanthracene) in a 0.5 ml microtube. After mixing for 10 seconds, 55 μl of a chloroform derivatization solution containing […] ethylchloroformate was added and mixed for an additional 10 seconds. Then, 350 μL purified water was added and the two phases allowed to separate for 60 seconds. The organic phase was aspirated and placed into a 2 mL autosampler amber vial with glass inserts and dried with anhydrous sodium sulfate before being capped with GC vial snap caps.
The organic phase samples were dried and analyzed on an Agilent GC/MS 6890/5975C system with MS Chem Station software. Gas chromatography was carried out using a fused silica DB-WAX precolumn (0.2 m×0.25 mm, dF=0.25 μm), and a fused silica DB-WAX separation column (4 m×0.25 mm, dF=0.25 μm). Ultra high purity He was used as the carrier gas.
The GC parameters were set as follows: injection time was set to 5 μl using the splitless mode. After 120 seconds the split valve was opened with a 40 mL/minute split flow and front inlet temperature was held at 150° C. The oven temperature was ramped, starting at 60° C. for 2 minutes then increased at 50° C./minute to 160° C., then increased at 20° C./minute to 260° C. and held for 2.5 minutes. The MS detector was maintained at 300° C., with a solvent delay of 7 minutes, ion m/z 192 at 7.0-8.7 minutes, dwell time 100 ms, low-mass resolution; ion m/z 166, m/z 154 at 8.7-11.5 minutes, dwell time per ion 100 ms, low-mass resolution. […]

CCCc1c2oc(C(=O)O)cc(=O)c2cc2c(=O)cc(C(=O)O)n(CC)c12 [Nedocromil sodium, disodium salt of 9-ethyl-6,9-dihydro-4,6-dioxo-10-propyl-4H-pyrano[3,2-g]-quinoline-2,8-dicarboxylic acid]
Findings (histology of hoof sections, inflammation) [1]: No inflammation was observed; also recorded: effectively reduced short-term inflammation; also recorded: No significant findings
Toxicity and/or side effects ([2]; bovine, in vivo): lack of toxicity and/or side effects
Protection from lactic acidosis ([2]; calves 1 and 2, nedocromil sodium 1.5 g via jugular vein on days 1-4 and 6-7, 2 g on day 11 before carbohydrate mixture, observed 72 hours): protected from lactic acidosis
Histamine Levels ([3]; Lactic acid + 1 μl nedocromil sodium): 15.810
Histamine Levels ([3]; Lactic acid + 2 μl nedocromil sodium): 14.470
Inhibition of histamine release ([3]; lactic acid-stimulated cells, increasing levels of nedocromil sodium): effective in inhibiting histamine release
